# From patent US7001756B1, “Microorganism strain of GM-020 of Lactobacillus rhamnosus and its use for treating obesity” (GenMont Biotech Inc., priority 2004, dated 2006)
# Columns and labels:
# [1] = Obesity model: lipid tissue weight around the testicle and the kidney; assay type: in vivo, ICR mice; details: after 4 weeks treatment; GM-020 10^9 CFU/mL or PPA 4.875 mg each time, twice a day
# Procedure: (§1) Food and water were supplemented sufficiently. The mice were divided into two groups. […] The mice's body weights were measured every week.
# (§2) The treatments were administrated twice a day.
# Differences of lipid tissue weight around the testicle: The mice were sacrificed, and the lipid tissues around the testicle were taken and weighted.
# Differences of lipid tissue weight around the kidney: The mice were sacrificed, and the lipid tissues around the kidney were taken and weighted.
# [2] = Obesity model: body weight of ICR mice on high energy diet; assay type: in vivo; details: GM-020 10^9 CFU/mL or PPA 4.875 mg each time, twice a day
# Procedure: as §1, §2
# Body weight difference: After treated for 4 weeks, blood samples were collected from the tails for biochemical assay.
# [3] = Obesity model: liver concentration of fat metabolites; assay type: in vivo, ICR mice; details: right lobe of liver; 4 weeks treatment; GM-020 10^9 CFU/mL or PPA 4.875 mg each time, twice a day
# Procedure: as §1, §2
# Liver concentration of fat metabolites: The mice were sacrificed, and the right lobe of liver was taken. The fat was extract according to the conventional method.
# For each sample, the concentration of triacylglycol (TG) and total cholesterol (CHOL) were assayed as mentioned above.
# [4] = Obesity model: serum concentration of fat metabolites; assay type: in vivo, ICR mice; details: 4 weeks treatment, GM-020 10^9 CFU/mL or PPA 4.875 mg each time, twice a day
# Procedure: as §1, §2
# Serum concentration of fat metabolites: Blood samples were collected from the tails for biochemical assay. The blood samples were stayed at room temperature for 1 hour and centrifuged at 2,500 rpm for 10 minutes. The upper layer of serum was taken for assay.
# The concentration of triacylglycol (TG) of each group was assayed with TRI[…] LIQUID REAGENT™ (ASK®, Taiwan) and the absorption was measured with Autoanalyzer Hitachi™ 7150. The concentration of total cholesterol (CHOL) was assayed with C[…] REAGENT™ (ASK®, Taiwan), and the absorption was measured with Autoanalyzer Hitachi™ 7150.
# [5] = Liver and kidney function assays (serum GOT, GPT, creatinine, uric acid); details: 4 weeks treatment, GM-020 10^9 CFU/mL or PPA 4.875 mg each time, twice a day
# Procedure: Animal model: Male ICR mice were purchased from National Laboratory Animal Center in Taiwan and raised alone in light for 12 hours and in dark for 12 hours at a temperature of 25±1° C. and a humidity of 60±5%. Food and water were supplemented sufficiently. The mice were divided into two groups. One was normal control group and the other was high energy group. The normal control group was fed with normal diet, and the high energy group was fed with high energy diet containing 48% dry feeding stuff, 8% corn oil and 44% condensed milk. The mice's body weights were measured every week. The high energy group was further divided into groups as listed below according treatment: (a) 1× of wood ear, (b) 1× of wood ear combined with GM-020, (c) GM-020, (d) 10× of wood ear, (e) 10× of wood ear combined with GM-020, (f) negative control treated with normal saline, and (g) positive control treated with PPA.
# Treatment with GM-020 and/or wood ear: The normal control group was fed with normal diet continuously. The treatments were administrated twice a day. The dosage of PPA was 4.875 mg each time. In the meal of 1× of wood ear, there was 15.6 mg of wood ear in 3 g diet, and in the meal of 10× of wood ear, there is 156 mg of wood ear in 3 g diet. The dosage of GM-020 was 10^9 CFU/mL.
# Liver and kidney function assays: The blood samples were treated as described above.
# For each sample, the concentration of creatinine was assayed according to Jaffe Reaction method (Unichem®, Japan) and the absorption was measured with Autoanalyzer Hitachi™ 7150. The concentration of GOT was assayed with GOT (ASAT) IFCC mod™. (HUMAN®, Germany) and the absorption was measured with Autoanalyzer Hitachi™ 7150. The concentration of GPT was assayed with GPT (ALAT) IFCC mod™. (HUMAN®, Germany) and the absorption was measured with Autoanalyzer Hitachi™ 7150. The concentration of uric acid (UA) was assayed according to uricase-peroxidase method (Unichem®, Japan) and the absorption was measured with Autoanalyzer Hitachi™ 7150.
# The data were analyzed with Kruskal Wallis H Test, and that of the normal control group was taken as a baseline for Dunnett Test.
smiles,measurement,setting,value
"CC(N)C(O)c1ccccc1 (centres unmarked) [Positive Control, phenylpropanolamine]",lipid tissue weight around the kidney compared with the negative control group,[1],little difference
same,lipid tissue weight around the testicle compared with the negative control group,[1],significant decrease
same,body weight compared with the negative control group,[2]; after 2 weeks,significant decrease
same,body weight compared with the negative control group,[2]; after 3 weeks,significant decrease
same,CHOL (liver concentration of total cholesterol),[3],26.75 ± 1.48
same,TG (liver concentration of triacylglycol),[3],103.58 ± 11.41
same,CHOL (serum concentration of total cholesterol),[4],219.08 ± 11.22
same,HDL (serum concentration of HDL-C),[4],123.19 ± 4.20
same,LDL (serum concentration of LDL-C),[4],10.04 ± 0.93
same,TG (serum concentration of triacylglycol),[4],75.83 ± 9.93
same,Creatinine,[5],0.56 ± 0.03
same,GOT,[5],117.50 ± 12.95
same,GPT,[5],47.00 ± 6.17
same,UA (uric acid),[5],2.42 ± 0.50
